# Assay results published in PMC3478562 (Biochemical pharmacology, 2011).
# How the values were obtained:
# [1] = target: T1, Alr (Staphylococcus aureus, UniProt Q6GF03); experiment: Inhibitor reversibility: IC50 after pre-incubation with the enzyme; format: biochemical; settings: pre-incubation 30 minutes vs 6 hours (16 hours)
# [2] = system: Aspergillus niger 624; experiment: Antimicrobial activity spectrum MIC; format: cell-based
# [3] = system: Staphylococcus epidermidis 831; experiment: Antimicrobial activity spectrum MIC; format: cell-based
# [4] = system: Streptococcus pneumoniae 1195; experiment: Antimicrobial activity spectrum MIC; format: cell-based
# [5] = system: Enterococcus faecium 800; experiment: Antimicrobial activity spectrum MIC; format: cell-based
# [6] = system: Candida albicans 2000; experiment: Antimicrobial activity spectrum MIC; format: cell-based
# [7] = system: S. aureus USA 300; experiment: MIC in wild type and Alr overexpressing strains; settings: Staphylococcus aureus, USA300
# [8] = system: S. aureus N315-alr (Alr overexpressing); experiment: MIC in wild type and Alr overexpressing strains; settings: Staphylococcus aureus
# [9] = system: Staphylococcus aureus HFH-30364; experiment: S. aureus MIC, broth microdilution; settings: HFH30364
# [10] = system: Staphylococcus aureus HFH-30522; experiment: S. aureus MIC, broth microdilution; settings: HFH30522
# [11] = target: T1, Alr; experiment: Inhibitor reversibility: pre-incubation and dialysis; format: biochemical; settings: pre-incubated 30 minutes, dialyzed for 16 hours
# [12] = system: Staphylococcus aureus PCI 124; experiment: S. aureus MIC, broth microdilution; settings: PCI124
# [13] = system: Staphylococcus aureus PCI 1158; experiment: S. aureus MIC, broth microdilution; settings: PCI1158
# [14] = system: S. aureus N315; experiment: MIC in wild type and Alr overexpressing strains; settings: Staphylococcus aureus
# [15] = system: Staphylococcus aureus FDA 209; experiment: S. aureus MIC, broth microdilution; settings: FDA209
# [16] = system: Staphylococcus aureus HFH-29568; experiment: S. aureus MIC, broth microdilution; settings: HFH29568
# [17] = system: S. aureus USA300-alr (Alr overexpressing); experiment: MIC in wild type and Alr overexpressing strains; settings: Staphylococcus aureus
# [18] = system: Staphylococcus aureus HFH-30032; experiment: S. aureus MIC, broth microdilution; settings: HFH30032
# [19] = system: Staphylococcus aureus 328; experiment: S. aureus MIC, broth microdilution
# [20] = system: Proteus mirabilis 1360; experiment: Antimicrobial activity spectrum MIC; format: cell-based
# [21] = system: Escherichia coli 102; experiment: Antimicrobial activity spectrum MIC; format: cell-based
# [22] = system: Escherichia coli 120 (acrAB efflux pump deletion); experiment: microbe, parasite or virus in culture; format: cell-based
# [23] = system: Enterococcus faecalis 101; experiment: Antimicrobial activity spectrum MIC; format: cell-based
# [24] = system: Klebsiella pneumoniae 1339; experiment: Antimicrobial activity spectrum MIC; format: cell-based
# [25] = system: Streptococcus pyogenes 712; experiment: Antimicrobial activity spectrum MIC; format: cell-based
# [26] = system: Pseudomonas aeruginosa 1380; experiment: Antimicrobial activity spectrum MIC; format: cell-based
# T1 sequence (Q6GF03 whole entry): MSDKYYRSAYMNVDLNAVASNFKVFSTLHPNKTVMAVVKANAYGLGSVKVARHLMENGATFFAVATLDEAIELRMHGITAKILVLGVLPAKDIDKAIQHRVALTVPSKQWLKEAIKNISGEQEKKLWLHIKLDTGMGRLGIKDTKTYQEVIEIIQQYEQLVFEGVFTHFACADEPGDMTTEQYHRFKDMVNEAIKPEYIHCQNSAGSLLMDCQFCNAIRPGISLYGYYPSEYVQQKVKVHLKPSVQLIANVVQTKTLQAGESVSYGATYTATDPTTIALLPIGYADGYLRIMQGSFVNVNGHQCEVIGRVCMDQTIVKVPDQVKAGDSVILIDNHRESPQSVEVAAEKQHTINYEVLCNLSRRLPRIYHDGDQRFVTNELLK
structure (smiles),measurement,setting,value
"CC(=O)OC[C@H](N)C(=O)O [O-acetyl-L- serine, O-acetyl-L-serine]",change of IC50 values with longer pre-incubation time,[1],no significant reduction in IC50 values
"O=C(O)c1cn(C2CC2)c2cc(N3CCNCC3)c(F)cc2c1=O [Cipro, Ciprofloxacin]",MIC,[2],> 64 µg/mL
same,MIC,[3],> 16 µg/mL
same,MIC,[4],0.5 µg/mL
same,MIC,[5],> 16 µg/mL
same,MIC,[6],> 64 µg/mL
"N[C@@H]1CON=C1O [DCS, D-cycloserine]",MIC,[7],25 µg/mL
same,MIC,[8],25 µg/mL
same,MIC,[9],12.5 µg/mL
same,MIC,[10],12.5 µg/mL
same,change of IC50 values with longer pre-incubation time,[1],a significant reduction in the IC50 values occurs with longer pre-incubation time
same,recovery of Alr activity after dialysis,[11],no increase in activity
same,MIC,[12],12.5 µg/mL
same,MIC,[13],12.5 µg/mL
same,MIC,[14],25 µg/mL
same,MIC,[15],12.5 µg/mL
same,MIC,[16],12.5 µg/mL
same,MIC,[17],25 µg/mL
same,MIC,[18],12.5 µg/mL
same,MIC,[19],12.5 µg/mL
"C[C@@H]1[C@H](O)[C@@H](C)/C=C/C=C/C=C/C=C/C=C/C=C/C=C/[C@H](O[C@@H]2O[C@H](C)[C@@H](O)[C@H](N)[C@@H]2O)C[C@@H]2O[C@](O)(C[C@@H](O)C[C@@H](O)[C@H](O)CC[C@@H](O)C[C@@H](O)CC(=O)O[C@H]1C)C[C@H](O)[C@H]2C(=O)O [AMPB, Amphotericin B]",MIC,[20],> 64 µg/mL
same,MIC,[21],> 64 µg/mL
same,MIC,[3],> 64 µg/mL
same,MIC,[4],> 64 µg/mL
same,MIC,[5],> 64 µg/mL
same,MIC,[22],> 64 µg/mL
same,MIC,[23],> 64 µg/mL
same,MIC,[24],> 64 µg/mL
same,MIC,[25],> 64 µg/mL
same,MIC,[26],> 64 µg/mL
CCC(=O)[O-].[Na+] [sodium propionate],recovery of Alr activity after dialysis,[11],recovery of Alr activity
